Laboratory results reported in patent US20200102264A1, “MARMELIN ANALOGS AND METHODS OF USE IN CANCER TREATMENT” (THE UNIVERSITY OF KANSAS, priority 2014, published 2020).
pIC50: −log10 of the molar value. Entries after “also recorded” stand apart in the source; their conditions may differ.

Key:
[1] = test system: KU7 bladder cancer cells; test: hexoseaminidase cell proliferation assay, KU7; type: cell-based
Description: (§1) Using hexoseaminidase assay, we determined the effect of the compounds on cell proliferation. […] The IC50 value at 48 hours is below 10 μM in all the cancer cell lines.

[2] = test system: cancer stem cells; test: colonosphere formation; type: cell-based
Description: It was also determined the analogs inhibit colonosphere formation from cancer stem cells. […] The columns are 0, 10, 25, and 50 micromolar concentrations of the compounds labeled by rows.
The effect of the compounds on colonosphere formation was determined. […] Overall, the analogs have shown they can be used as chemotherapeutic agents against colon, pancreatic and bladder cancer.

[3] = test system: colon, pancreatic and bladder cancer cells; test: hexoseaminidase cell proliferation assay, summaries over cell lines; type: cell-based; details: dose and time dependent
Summary of the method: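 Hexosaminidase read-out of cell proliferation; IC50 determined after 48 h exposure.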

[4] = test system: MiaPaCa-2 pancreatic cancer cells; test: hexoseaminidase cell proliferation assay, MiaPaCa-2; type: cell-based
Description: as §1
Using hexoseaminidase assay, we determined the effect of the compounds on cell proliferation. […] The MRL16 IC50 value at 48 hours is below 0.3 μM in Colon cancer cell lines. […] Overall, the analogs can be used as chemotherapeutic agents against colon and pancreatic cancer.

[5] = test system: HCT116 cells; test: cell cycle analysis, HCT116; type: cell-based; details: HCT116, Table 3
[6] = molecular target: CAMKIV (Homo sapiens, UniProt Q16566); test: kinase activity against CAMKIV; type: biochemical
[7] = test system: Cyclin D1, c-Myc, Akt phosphorylation, COX-2, VEGF; test: western blot analysis, cancer promoting genes; type: cell-based; details: HCT116 and SW480 cells, 48 h
Description: The pathways for apoptosis were studied to determine whether the analogs were capable of inhibiting certain aspects of the pathways. […] HCT116 and SW480 cells treated with MRL, THB, THBCD, DHB, DHBCD and CD for 48 h and performed for western blot analysis. […] It is shown that THBCD also activates caspase 8 and caspase 9. Furthermore, THB and THBCD inhibit anti-apoptotic protein Bcl2 and BclXL levels. […] HCT116 and SW480 cells treated with MRL, THB, THBCD, DHB, DHBCD and CD for 48 h and performed for western blot analysis. Furthermore, THB and THBCD inhibit phosphorylation of Akt (FIG. 3).

[8] = test system: HCT116 colon cancer cells; test: hexoseaminidase cell proliferation assay, HCT116; type: cell-based
Excerpt: (§2) Using hexoseaminidase assay, we determined the effect of the compounds on cell proliferation. […]
(§3) Using hexoseaminidase assay, we determined the effect of the compounds on cell proliferation. […] […] […] Overall, the analogs can be used as chemotherapeutic agents against colon and pancreatic cancer.

[9] = test system: DCLK1+ HCT116 cells; test: flow cytometric analysis of DCLK1+ cells; type: cell-based; details: flow cytometry
[10] = test system: Mst1/2, Lats1/2, YAP1, TEAD1, 2, and 4; test: Hippo signaling-related proteins; type: cell-based; details: HCT116 and SW480 cell lines
Excerpt: The Hippo pathway regulates stem cell proliferation, self-renewal, and differentiation. YAP1 is highly expressed gene in stem cells. […] We next determined the effect of THB or THBCD on Hippo signaling-related proteins in the two colon cancer cells.

[11] = test system: SW480 colon cancer cells; test: hexoseaminidase cell proliferation assay, SW480; type: cell-based
Excerpt: as §2, §3

[12] = test system: 253JBV bladder cancer cells; test: hexoseaminidase cell proliferation assay, 253JBV; type: cell-based
Description: as §1

[13] = test system: CAMKII; test: kinase activity against CAMKII; type: biochemical
[14] = test system: Presenilin, Nicastrin, APH1 and PEN2; test: γ-secretase complex protein expression; type: cell-based
Excerpt: The γ-secretase enzyme complex is made up of four proteins presenilin, nicastrin, APH-1 (anterior pharynx-defective 1), and PEN-2 (presenilin enhancer 2), all of which are essential for activity. Cleavage by the γ-secretase complex releases the Notch intracellular domain (NICD), which in turn translocates into the nucleus of the cells, interacts with the C promoter-binding factor-1 (CBF1) transcriptional cofactor and transactivates target genes, such as those in the hairy and enhancer of split (Hes) and Hes related with YRPW motif (Hey) family proteins. We determined whether the γ-secretase complex comprising of Presenilin, Nicastrin, APH1 and PEN2 is affected.

[15] = test system: SW480 cells; test: colony formation, SW480; type: cell-based
[16] = test system: DCLK1, LGR5 and CD44; test: stem cell marker protein expression; type: cell-based; details: HCT116 and SW480 cells
Description: The analogs were also tested with doublecortin and CaM kinase-like-1 (DCLK1), a microtubule-associated kinase expressed in postmitotic neurons and is an intestinal stem cell marker that is expressed in colon adenocarcinoma. DCLK1 distinguishes between tumor and normal stem cells in the intestine and could be a therapeutic target for colon cancer.

[17] = test system: SW480 cells; test: cell cycle analysis, SW480; type: cell-based; details: SW480, Table 3
Description: The analogs were tested to determine the ability induce death of colon cancer cells.

[18] = test system: Notch-1, Jagged-1, Hes-1; test: Notch signaling-related proteins; type: cell-based; details: two colon cancer cells
Excerpt: Notch signaling also plays a fundamental role in the differentiation and maintenance of stem cells. […] We next determined the effect of THB or THBCD on Notch signaling-related proteins in the two colon cancer cells.

Sequence of CAMKIV (Q16566 whole entry, species assumed): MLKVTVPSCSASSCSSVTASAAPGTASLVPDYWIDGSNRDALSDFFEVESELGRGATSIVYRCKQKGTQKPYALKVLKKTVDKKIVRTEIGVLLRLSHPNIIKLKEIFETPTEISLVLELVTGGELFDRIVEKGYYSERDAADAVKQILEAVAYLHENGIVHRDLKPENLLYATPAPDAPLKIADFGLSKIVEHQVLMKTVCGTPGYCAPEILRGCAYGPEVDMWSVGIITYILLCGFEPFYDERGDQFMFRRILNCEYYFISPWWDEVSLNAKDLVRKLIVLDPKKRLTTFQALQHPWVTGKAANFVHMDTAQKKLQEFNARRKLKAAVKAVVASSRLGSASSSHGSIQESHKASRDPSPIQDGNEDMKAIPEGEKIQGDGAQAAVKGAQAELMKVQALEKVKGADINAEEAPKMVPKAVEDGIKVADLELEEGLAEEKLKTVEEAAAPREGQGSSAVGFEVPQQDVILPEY

O=C(N/N=C/c1ccc(O)c(O)c1O)c1cc2ccccc2cc1O [MRL THB]
pIC50 ([1]; KU7, 24 h): 4.66 | pIC50 ([1]; KU7, 48 h): 5.10 | pIC50 ([1]; KU7, 72 h): 5.22 | colonosphere formation [2]: significantly inhibited colonosphere formation | inhibition of cell proliferation (in words) [3]: potent inhibitor; also recorded: inhibit proliferation | pIC50 ([4]; MiaPaCa-2, 24 h): < 4.30 | pIC50 ([4]; MiaPaCa-2, 48 h): 5.00 | pIC50 ([4]; MiaPaCa-2, 72 h): 5.00 | pIC50 ([4]; MiaPaCa-2, 72 h, listed as THB): 5.05 | G0/G1 (%) [5]: 17.2% | G2M (%) [5]: 19.7% | S (%) [5]: 28.1% | SubG0 Dead Cells (%) [5]: 29.0% | fold less activity against CAMKIV than DCLK1 [6]: 100 fold | COX-2 and VEGF expressions [7]: inhibit | cyclin D1 and c-Myc levels [7]: inhibit | phosphorylation of Akt [7]: inhibit | pIC50 ([8]; HCT116, 24 h): < 4.30 | pIC50 ([8]; HCT116, 48 h): 5.00 | pIC50 ([8]; HCT116, 72 h): 5.12 | pIC50 ([8]; HCT116, 72 h, listed as THB): 5.10 | DCLK1+ cells [9]: significant decrease | expression of TEAD1, 2, and 4 [10]: significant downregulation | phosphorylation of Mst1/2, Lats1/2 and YAP1 [10]: significantly downregulated | pIC50 ([11]; SW480, 24 h): < 4.30 | pIC50 ([11]; SW480, 48 h): 5.00 | pIC50 ([11]; SW480, 72 h): 5.00 | pIC50 ([11]; SW480, 72 h, listed as THB): 5.05 | pIC50 ([12]; 48 h): 4.42 | pIC50 ([12]; 72 h): 4.82 | fold less activity against CAMKII than DCLK1 [13]: 100 fold | expression of Presenilin, Nicastrin, APH1 and PEN2 [14]: downregulation | colony formation [15]: significantly inhibited colony formation | DCLK1, LGR5 and CD44 expression [16]: significantly inhibited | G0/G1 (%) [17]: 39.5% | G2M (%) [17]: 26.8% | S (%) [17]: 21.8% | SubG0 Dead Cells (%) [17]: 10.8% | Hes-1 expression [18]: reduced expression | Notch-1 and Jagged-1 [18]: downregulated
